Assay results taken from patent US6046219A, “Method for the treatment of conditions mediated by collagen formation together with cell proliferation by application of inhibitors of protein hydroxylation” (Cornell Research Foundation, Inc., priority 1997, dated 2000).
Entries after “also recorded” stand apart in the source; their conditions may differ.

Tests used:
Assay type in all cases: cell-based
[1] = target: T1, cellular human deoxyhypusyl hydroxylase (Homo sapiens, UniProt Q9BU89); test: Cellular human deoxyhypusyl hydroxylase (DOHH assay, 3H-spermidine labeling)
T1 construct: endogenous in cells; host or cells: cultured human cells (smooth muscle cells, B-lymphocytes)
T1 sequence (Q9BU89 1-302): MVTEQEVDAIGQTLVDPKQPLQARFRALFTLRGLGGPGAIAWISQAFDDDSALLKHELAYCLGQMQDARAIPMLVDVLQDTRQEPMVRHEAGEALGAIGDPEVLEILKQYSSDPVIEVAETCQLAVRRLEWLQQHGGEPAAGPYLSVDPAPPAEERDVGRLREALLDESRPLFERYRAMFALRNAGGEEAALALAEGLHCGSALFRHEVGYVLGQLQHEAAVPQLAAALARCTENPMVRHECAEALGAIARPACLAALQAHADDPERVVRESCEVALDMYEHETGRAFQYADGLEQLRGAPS
Source text: The inhibitory action of the substances according to the invention, for example on collagen secretion or cell proliferation, can be tested in direct assays of the enzymes mediating the pivotal protein hydroxylations for these biological processes, such as prolyl 4-hydroxylase and deoxyhypusyl hydroxylase. This entails the enzymatic hydroxylation of the appropriate protein precursor, either by the cellular or the purified enzyme, in the presence or absence of compounds of Formulae (I) or (II), with concomitant determination of co-substrate utilization by these enzymes or subsequent isolation of the hydroxylated amino acid and its unhydroxylated precursor. In this manner, the inhibitory potency of any given compound can be measured in the cell-free system, in cell culture, or in tissue, and is expressed as the inhibitory dose that gives a 50% reduction of the enzyme-mediated reaction (ID50). Enzyme is tested in analogy to the method of A. Abbruzzese, H. M. Hanauske-Abel, et al., Biochem. Biophys. Acta, 1077, 159-166 (1991) and of K. Majamaa, H. M. Hanauske-Abel, et al., Eur. J. Biochem. 138, 239-245 (1984), which are hereby incorporated by reference. Table III lists the ID50 values of some of the compounds according to the invention, using purified human prolyl 4-hydroxylase and cellular human deoxyhypusyl hydroxylase as representative protein hydroxylases.
The inhibiting effect of hydroxypyridones on the eIF-5A-hydroxylating enzyme was studied in cultured human cells (i.e. smooth muscle cells, B-lymphocytes).
The cellular conversion of the precursor deoxyhypusine to the hydroxylated hypusine in cells was examined, after preincubation with the inhibitor for 60 minutes, by labeling the human cells with ^3 H-spermidine (5 μCi/ml) in 25 cm^2 flasks (1×10^6 cells/flask) for 24 hours prior to cell lysis, precipitation with 10% TCA containing 1 mM each of putrescine, spermidine, and spermine, and hydrolysis in 6 N HCl at 110° C. for 16 hours. The hydrolysate was analyzed for labeled amino acids on an amino acid analyzer by published methods (Park et al., J. Biol. Chem., 257:7217-7222 (1982), which is hereby incorporated by reference). The retention of purified hypusine and deoxyhypusine was determined from standards.

type III procollagen = test: Type III procollagen secretion by SMC; details: human SMC, FIG. 6a
Experimental: Type III collagen biosynthesis (FIG. 6a) was assessed by a commercial radioimmunoassay using a monoclonal antibody to the N-terminal propeptide of type III procollagen. Plasminogen activator inhibitor-1 ("PAI-1") activity was measured by a standard enzymatic method. Type I collagen biosynthesis (FIG. 6b) was assessed by routine Western blot using a monoclonal antibody to the C-terminal propeptide of type I procollagen.
SMC or MRC-5 cells (3-5×10^6 cells/35 mm well), incubated in serum-free DMEM containing 50 μg/ml sodium ascorbate and 20 μg/ml β-aminopropionitrile, are exposed for 24 hours to increasing concentrations of hydroxypyridones. After centrifugation, to clear any cellular debris, these supernatants are used to determine the levels of type I and III procollagens, using commercially available radioimmunoassays (Incstar and Behringwerke, respectively).
Human SMC (3-5×10^5 cells/35 mm well), grown to confluency and incubated in serum-free DMEM containing 50 μg/ml sodium ascorbate and 20 μg/ml β-aminopropionitrile, were exposed for 24 hours to increasing concentrations of test compounds. […] Type I procollagen biosynthesis also was quantified by Western analysis in the following manner. […] Immunoblots were scanned with a UMAX UC630 flatbed scanner and quantified densitometrically using standard software.

[2] = test system: human SMC from fibroproliferative vascular lesions; test: Cell proliferation: DNA synthesis (3H-thymidine) in SMC; details: for reversibility of cytostatic effect upon withdrawal: corrected for cell number
Experimental: The effect of the structural hydroxypyridone analog kojic acid is shown for comparison. Serum-stimulated DNA synthesis in SMC was determined by a 4-hour pulse of ^3 H-thymidine given 20 hours after treatment with L-mimosine and kojic acid (filled symbols). Identically treated, but unlabeled cells cultured in parallel, at that time point were washed and returned to fresh culture media without inhibitor for an additional 20 hours prior to otherwise identical labeling with ^3 H-thymidine (open symbols). Data is expressed as ^3 H-thymidine incorporated per cell to compensate for the reduced cell number in the wake of inhibitor treatment.
Inhibition of DNA synthesis was examined by semiautomated methods. SMC were plated at 1×10^4 cells/well in 96-well microtiter plates at least 24 hours prior to the assay. Agents were introduced into normal serum-containing growth media for 20 hours before the cells were pulsed with ^3 H-thymidine (1 μCi/ml) for 4 hours. Cells were collected with a cell harvester and the DNA-incorporated label determined by scintillation counting (Betaplate; Wallac, Inc., Gaithersburg, Md.) (n=6 per point).

N[C@@H](Cn1ccc(=O)c(O)c1)C(=O)O [L-Mimosine]
inhibition of deoxyhypusyl hydroxylase ([1]; FIG. 3, assayed in vitro): directly inhibit
Deoxyhypusyl hydroxylase ID50 (cellular) ([1]; cellular human enzyme, inhibitory dose that gives 50% reduction of the enzyme-mediated reaction, unit assumed): 65 µM
inhibition of secretion of procollagen type III (type III procollagen): potent inhibitor; also recorded: selectively suppressive effect
non-specific or toxic effects ([2]; FIGS. 6, 7): did not result from non-specific or toxic effects
reversibility of cytostatic effect upon withdrawal ([2]; FIG. 7, listed as L-mimosine): non-toxic reversibility
reversibility of cytostatic effect upon withdrawal ([2]; FIG. 7, listed as mimosine): fully reversible
rebound effect on DNA synthesis ([2]; following inhibitor removal and additional 24-hour recovery): marked rebound effect
inhibition of DNA synthesis ([2]; lesion-derived SMC, initial 24-hour treatment, FIG. 7): DNA synthesis was inhibited
reversibility of suppressive effects (collagen secretion, onset of DNA synthesis) ([2]; upon removal of compound): reversible
